Assays:
[1] = molecular target: T1, cloned human M2 receptor (human Muscarinic receptor subtype 2) (Homo sapiens, UniProt P08172); test: hM2 receptor GTPγS binding; assay type: biochemical; conditions: CHO cell membranes expressing hM2; [35S]GTPγS binding; read-out: hM2 EC50
T1 construct: purchased Perkin-Elmer RBHM2M; host or cells: Chinese hamster ovary cells (CHO) membranes
T1 sequence (P08172 1-466): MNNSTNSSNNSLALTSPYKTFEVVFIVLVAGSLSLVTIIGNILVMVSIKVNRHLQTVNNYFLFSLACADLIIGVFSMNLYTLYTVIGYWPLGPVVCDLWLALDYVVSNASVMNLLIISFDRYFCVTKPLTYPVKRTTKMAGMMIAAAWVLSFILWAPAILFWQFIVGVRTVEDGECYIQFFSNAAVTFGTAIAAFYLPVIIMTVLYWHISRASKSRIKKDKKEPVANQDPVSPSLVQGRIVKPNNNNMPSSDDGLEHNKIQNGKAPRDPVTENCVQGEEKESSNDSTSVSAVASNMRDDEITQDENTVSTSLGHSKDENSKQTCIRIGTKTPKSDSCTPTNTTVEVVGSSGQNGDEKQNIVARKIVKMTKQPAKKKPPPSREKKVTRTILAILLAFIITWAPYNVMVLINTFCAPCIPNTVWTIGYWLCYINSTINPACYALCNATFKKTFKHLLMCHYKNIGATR
Procedure: hM2 Receptor GTPγS Binding
Membranes produced from Chinese hamster ovary cells (CHO) expressing the cloned human M2 receptor (human Muscarinic receptor subtype 2, gene bank access NM_000739), are obtained from Perkin-Elmer (RBHM2M). The membranes are thawed at 37° C., passed 3 times through a 23-gauge blunt-end needle, diluted in the GTPγS binding buffer (50 mM Hepes, 20 mM NaOH, 100 mM NaCl, 1 mM EDTA, 5 mM MgCl2, pH 7.4, 100 μM DTT). The EC50, IC50 and Emax of the compounds of the invention are evaluated from 10-point dose-response curves (three fold concentration range) done in 60 μl in 384-well non-specific binding surface plate (Corning). Ten microliters from the dose-response curves plate (5× concentration) are transferred to another 384 well plate containing 25 μl of the following: 5 μg of hM2 membranes, 500 μg of Flashblue beads (Perkin-Elmer) and GDP 25 μM. An additional 15 μl containing 3.3× (60,000 dpm) of GTPγ^35S (0.4 nM final) are added to the wells resulting in a total well volume of 50 μl. Basal and maximal stimulated [^35S]GTPγS binding are determined in absence and presence of 30 μM final of acetylcholine agonist. The membranes/beads mix are pre-incubated for 15 minutes at room temperature with 25 μM GDP prior to distribution in plates (12.5 μM final). The reversal of acetylcholine-induced stimulation (2 μM final) of [^35S]GTPγS binding is used to assay the antagonist properties (IC50) of the compounds. The plates are incubated for 60 minutes at room temperature then centrifuged at 400 rpm for 5 minutes. The radioactivity (cpm) is counted in a Trilux (Perkin-Elmer).
(§1) Values of EC50, IC50 and Emax are obtained using sigmoidal fits of a non-linear curve-fitting program (XLfit version 4.2.2 Excel add-in version 4.2.2 build 18 math 1Q version 2.1.2 build 18) of percent stimulated [^35S]GTPγS binding vs. log(molar ligand). All pEC50 and plC50 values are reported as arithmetic means ±standard error of mean of ‘n’ independent experiments.

[2] = molecular target: T2, cloned human M4 receptor (human Muscarinic receptor subtype 4) (Homo sapiens, UniProt P08173); test: hM4 receptor GTPγS binding; assay type: biochemical; conditions: CHO cell membranes expressing hM4; [35S]GTPγS binding; read-out: hM4 EC50
T2 construct: purchased Perkin-Elmer RBHM4M; host or cells: Chinese hamster ovary cells (CHO) membranes
T2 sequence (P08173 1-479): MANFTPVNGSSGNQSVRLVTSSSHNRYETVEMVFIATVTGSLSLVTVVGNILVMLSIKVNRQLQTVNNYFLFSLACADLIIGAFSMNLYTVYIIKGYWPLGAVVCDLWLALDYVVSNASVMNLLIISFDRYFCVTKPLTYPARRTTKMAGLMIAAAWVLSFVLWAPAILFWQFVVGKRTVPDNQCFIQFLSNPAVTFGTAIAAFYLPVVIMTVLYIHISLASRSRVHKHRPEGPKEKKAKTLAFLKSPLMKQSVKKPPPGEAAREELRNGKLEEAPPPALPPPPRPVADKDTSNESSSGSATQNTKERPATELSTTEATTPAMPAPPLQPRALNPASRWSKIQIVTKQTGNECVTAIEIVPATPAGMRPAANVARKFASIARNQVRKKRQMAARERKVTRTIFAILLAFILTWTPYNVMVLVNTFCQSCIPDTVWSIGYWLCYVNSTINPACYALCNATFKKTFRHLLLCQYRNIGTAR
Procedure: hM4 Receptor GTPγS Binding
Membranes produced from Chinese hamster ovary cells (CHO) expressing the cloned human M4 receptor (human Muscarinic receptor subtype 4, gene bank access NM_000741), are obtained from Perkin-Elmer (RBHM4M). The membranes are thawed at 37° C., passed 3 times through a 23-gauge blunt-end needle, diluted in the GTPγS binding buffer (50 mM Hepes, 20 mM NaOH, 100 mM NaCl, 1 mM EDTA, 5 mM MgCl2, pH 7.4, 100 μM DTT). The EC50, IC50 and Emax of the compounds of the invention are evaluated from 10-point dose-response curves (three fold concentration range) done in 60 μl in 384-well non-specific binding surface plate (Corning). Ten microliters from the dose-response curves plate (5× concentration) are transferred to another 384 well plate containing 25 μl of the following: 10 μg of hM4 membranes, 500 μg of Flashblue beads (Perkin-Elmer) and GDP 40 μM. An additional 15 μl containing 3.3× (60,000 dpm) of GTPγ^35S (0.4 nM final) are added to the wells resulting in a total well volume of 50 μl. Basal and maximal stimulated [^35S]GTPγS binding are determined in absence and presence of 30 μM final of acetylcholine agonist. The membranes/beads mix are pre-incubated for 15 minutes at room temperature with 40 μM GDP prior to distribution in plates (20 μM final). The reversal of acetylcholine-induced stimulation (10 μM final) of [^35S]GTPγS binding is used to assay the antagonist properties (IC50) of the compounds. The plates are incubated for 60 minutes at room temperature then centrifuged at 400 rpm for 5 minutes. The radioactivity (cpm) is counted in a Trilux (Perkin-Elmer).
as §1

`CC1(N2CCC(n3c(=O)[nH]c4ccccc43)CC2)CCN(C(=O)OCCF)C1` (single isomer, unassigned) [Example 31, 2-fluoroethyl 3-methyl-3-(4-(2-oxo-2,3-dihydro-1H-benzo[d]imidazol-1-yl)piperidin-1-yl)pyrrolidine-1-carboxylate] gave an EC50 [1] of 997 nM and an EC50 [2] of 1190 nM.
For `CC1(N2CCC(n3c(=O)[nH]c4ccccc43)CC2)CCN(C(=O)OCCF)C1` (single isomer, unassigned) [Example 32, 2-fluoroethyl 3-methyl-3-(4-(2-oxo-2,3-dihydro-1H-benzo[d]imidazol-1-yl)piperidin-1-yl)pyrrolidine-1-carboxylate], the EC50 [1] was 5840 nM and the EC50 [2] was 33700 nM.
`CC#CCOC(=O)N1CCC(C)(N2CCC(n3c(=O)[nH]c4ccccc43)CC2)C1` (single isomer, unassigned) [Example 33, but-2-ynyl 3-methyl-3-(4-(2-oxo-2,3-dihydro-1H-benzo[d]imidazol-1-yl)piperidin-1-yl)pyrrolidine-1-carboxylate] showed an EC50 [1] of 104 nM and an EC50 [2] of 316 nM.
`CC#CCOC(=O)N1CCC(C)(N2CCC(n3c(=O)[nH]c4ccccc43)CC2)C1` (single isomer, unassigned) [Example 34, but-2-ynyl 3-methyl-3-(4-(2-oxo-2,3-dihydro-1H-benzo[d]imidazol-1-yl)piperidin-1-yl)pyrrolidine-1-carboxylate] showed an EC50 [1] of 897 nM and an EC50 [2] of 1670 nM.
`C#CCOC(=O)N1CCC(C)(N2CCC(n3c(=O)[nH]c4cc(F)ccc43)CC2)C1` (single isomer, unassigned) [Example 36, prop-2-ynyl 3-(4-(5-fluoro-2-oxo-2,3-dihydro-1H-benzo[d]imidazol-1-yl)piperidin-1-yl)-3-methylpyrrolidine-1-carboxylate] gave an EC50 [1] of 1560 nM and an EC50 [2] of 6830 nM.
For `Cc1ccc2[nH]c(=O)n(C3CCN(C4(C)CCN(C(=O)OC(C)C)C4)CC3)c2c1` (single isomer, unassigned) [Example 39, isopropyl 3-methyl-3-(4-(6-methyl-2-oxo-2,3-dihydro-1H-benzo[d]imidazol-1-yl)piperidin-1-yl)pyrrolidine-1-carboxylate], the EC50 [1] was > 12800 nM and the EC50 [2] was > 90000 nM.
In the case of `Cc1ccc2[nH]c(=O)n(C3CCN(C4(C)CCN(C(=O)OC(C)C)C4)CC3)c2c1` (single isomer, unassigned) [Example 40, isopropyl 3-methyl-3-(4-(6-methyl-2-oxo-2,3-dihydro-1H-benzo[d]imidazol-1-yl)piperidin-1-yl)pyrrolidine-1-carboxylate], the EC50 [1] is reported as 2810 nM and the EC50 [2] is reported as > 22300 nM.
Work on `C#CCOC(=O)N1CCC(C)(N2CCC(n3c(=O)[nH]c4ccc(C)cc43)CC2)C1` (single isomer, unassigned) [Example 41, prop-2-ynyl 3-methyl-3-(4-(6-methyl-2-oxo-2,3-dihydro-1H-benzo[d]imidazol-1-yl)piperidin-1-yl)pyrrolidine-1-carboxylate] yielded an EC50 [1] of 2210 nM and an EC50 [2] of 8800 nM.
`C#CCOC(=O)N1CCC(C)(N2CCC(n3c(=O)[nH]c4ccc(C)cc43)CC2)C1` (single isomer, unassigned) [Example 43, prop-2-ynyl 3-methyl-3-(4-(6-methyl-2-oxo-2,3-dihydro-1H-benzo[d]imidazol-1-yl)piperidin-1-yl)pyrrolidine-1-carboxylate] showed an EC50 [1] of 109 nM and an EC50 [2] of 460 nM.
Work on `C#CCOC(=O)N1CCC(C)(N2CCC(n3c(=O)[nH]c4cc(C)ccc43)CC2)C1` (single isomer, unassigned) [Example 44, prop-2-ynyl 3-methyl-3-(4-(5-methyl-2-oxo-2,3-dihydro-1H-benzo[d]imidazol-1-yl)piperidin-1-yl)pyrrolidine-1-carboxylate] yielded an EC50 [1] of 26 nM and an EC50 [2] of 107 nM.
For `COC(=O)N1CCC(C)(N2CCC(n3c(=O)[nH]c4ccc(C)cc43)CC2)C1` (single isomer, unassigned) [Example 45, methyl 3-methyl-3-(4-(6-methyl-2-oxo-2,3-dihydro-1H-benzo[d]imidazol-1-yl)piperidin-1-yl)pyrrolidine-1-carboxylate], the EC50 [1] was 1640 nM and the EC50 [2] was 11200 nM.
In the case of `COC(=O)N1CCC(C)(N2CCC(n3c(=O)[nH]c4ccc(C)cc43)CC2)C1` (single isomer, unassigned) [Example 47, methyl 3-methyl-3-(4-(6-methyl-2-oxo-2,3-dihydro-1H-benzo[d]imidazol-1-yl)piperidin-1-yl)pyrrolidine-1-carboxylate], the EC50 [1] is reported as 127 nM and the EC50 [2] is reported as 907 nM.
`COC(=O)N1CCC(C)(N2CCC(n3c(=O)[nH]c4cc(C)ccc43)CC2)C1` (single isomer, unassigned) [Example 48, methyl 3-methyl-3-(4-(5-methyl-2-oxo-2,3-dihydro-1H-benzo[d]imidazol-1-yl)piperidin-1-yl)pyrrolidine-1-carboxylate] showed an EC50 [1] of 571 nM and an EC50 [2] of 3480 nM.
In the case of `CCOC(=O)N1CCC(C)(N2CCC(n3c(=O)[nH]c4ccc(F)cc43)CC2)C1` (single isomer, unassigned) [Example 49, ethyl 3-(4-(6-fluoro-2-oxo-2,3-dihydro-1H-benzo[d]imidazol-1-yl)piperidin-1-yl)-3-methylpyrrolidine-1-carboxylate], the EC50 [1] is reported as 4550 nM and the EC50 [2] is reported as 9480 nM.
For `CCOC(=O)N1CCC(C)(N2CCC(n3c(=O)[nH]c4ccc(F)cc43)CC2)C1` (single isomer, unassigned) [Example 50, ethyl 3-(4-(6-fluoro-2-oxo-2,3-dihydro-1H-benzo[d]imidazol-1-yl)piperidin-1-yl)-3-methylpyrrolidine-1-carboxylate], the EC50 [1] was 498 nM and the EC50 [2] was 2020 nM.
`COC(=O)N1CCC(C)(N2CCC(n3c(=O)[nH]c4ccc(F)cc43)CC2)C1` (single isomer, unassigned) [Example 52, methyl 3-(4-(6-fluoro-2-oxo-2,3-dihydro-1H-benzo[d]imidazol-1-yl)piperidin-1-yl)-3-methylpyrrolidine-1-carboxylate] was tested, and the EC50 [1] was 1240 nM and the EC50 [2] was 5090 nM.
